row,Compound,melting point [°C]
1,"c1ccc(Cc2c(N3CCOCC3)nc(N3CCN(c4ccccc4)CC3)nc2N2CCOCC2)cc1 [Compound 48, 5-benzyl-4,6-dimorpholino-2-(4-phenylpiperazin-1-yl)pyrimidine]",141 to 144
2,"Fc1c(N2CCOCC2)nc(N2CCOCC2)nc1N1CCN(C2CCCCC2)CC1 [Compound 124, 4-(4-cyclohexylpiperazin-1-yl)-5-fluoro-2,6-dimorpholinopyrimidine]",125 to 128
3,"Cc1ccccc1N1CCN(c2cc(N3CCOCC3)nc(N3CCN(c4ccccc4F)CC3)n2)CC1 [Compound 60, 2-[4-(2-fluorophenyl)piperazin-1-yl]-4-[4-(2-methylphenyl)piperazin-1-yl]-6-morpholinopyrimidine]",98 to 99
4,"Clc1c(N2CCOCC2)nc(N2CCN(c3ccccc3)CC2)nc1N1CCOCC1 [Compound 130, 5-chloro-4,6-dimorpholino-2-(4-phenylpiperazin-1-yl)pyrimidine]",131 to 133
5,"Cc1ccccc1N1CCN(c2nc(N3CCN(c4ccccc4F)CC3)nc(N3CCOCC3)c2F)CC1 [Compound 127, 5-fluoro-2-[4-(2-fluorophenyl)piperazin-1-yl]-4-[4-(2-methylphenyl)piperazin-1-yl]-6-morpholinopyrimidine]",71 to 72
6,"Cc1cccc(N2CCN(c3nc(N4CCN(C)CC4)nc(N4CCOCC4)c3F)CC2)c1C [Compound 183, 5-fluoro-2-(4-methylpiperazin-1-yl)-4-morpholino-6-[4-(2,3-xylyl)piperazin-1-yl]pyrimidine]",56 to 57
7,"CC(=O)N1CCN(c2cc(N3CCOCC3)nc(N3CCN(c4ccccc4)CC3)n2)CC1 [Compound 54, 4-(4-acetylpiperazin-1-yl)-6-morpholino-2-(4-phenylpiperazin-1-yl)pyrimidine]",171 to 172
8,"Cc1cccc(N2CCN(c3nc(N4CCOCC4)cc(N4CCOCC4)n3)CC2)c1C [Compound 29, 4,6-dimorpholino-2-[4-(2,3-xylyl)piperazin-1-yl]pyrimidine]",141
9,"Cc1c(N2CCOCC2)nc(N2CCN(c3ccccc3)CC2)nc1N1CCOCC1 [Compound 44, 5-methyl-4,6-dimorpholino-2-(4-phenylpiperazin-1-yl)pyrimidine]",99 to 102
10,"Cc1c(N2CCOCC2)nc(N2CCOCC2)nc1N1CCN(c2ccccc2)CC1 [Compound 45, 5-methyl-2,4-dimorpholino-6-(4-phenylpiperazin-1-yl)pyrimidine]",149 to 152
11,"Cc1ccccc1N1CCN(c2nc(N3CCOCC3)c(F)c(N3CCN(c4ccccc4C)CC3)n2)CC1 [Compound 129, 2,4-bis[4-(2-methylphenyl)piperazin-1-yl]-5-fluoro-6-morpholinopyrimidine]",106 to 107
12,"Cc1cccc(N2CCN(c3nc(N4CCN(Cc5ccc(N)cc5)CC4)nc(N4CCOCC4)c3F)CC2)c1C [Compound 194, 2-[4-(4-aminobenzyl)piperazin-1-yl]-5-fluoro-4-morpholino-6-[4-(2,3-xylyl)piperazin-1-yl]pyrimidine]",77 to 78
13,"Fc1ccccc1N1CCN(c2nc(N3CCOCC3)cc(N3CCOCC3)n2)CC1 [Compound 31, 2-[4-(2-fluorophenyl)piperazin-1-yl]-4,6-dimorpholinopyrimidine]",148
14,"C1=C(c2ccccc2)CCN(c2nc(N3CCOCC3)cc(N3CCOCC3)n2)C1 [Compound 40, 4,6-dimorpholino-2-[4-phenyl (1,2,5,6-tetrahydropyridin-1-yl)]pyrimidine]",157 to 160
15,"CCNc1c(N2CCOCC2)nc(N2CCN(c3ccccc3)CC2)nc1N1CCOCC1 [Compound 80, 5-ethylamino-4,6-dimorpholino-2-(4-phenylpiperazin-1-yl)pyrimidine]",100 to 104
16,"OC1(c2ccccc2)CCN(c2cc(N3CCOCC3)nc(N3CCOCC3)n2)CC1 [Compound 37, 4-(4-hydroxy-4-phenylpiperidin-1-yl)-2,6-dimorpholinopyrimidine]",189 to 192
